Drawing on ChEMBL document CHEMBL4742388, “Inhibitors of cyclin-dependent kinase 7 (cdk7)” (2019), this text covers IC50 for eight compounds.

Each structure is given as a SMILES string.

The test system of one experiment is HCC70. Kind of experiment: Inhibition of cell proliferation of human HCC70 cells incubated for 72 hrs by CyQUANT assay. Format: functional, cell-based. The following applies: HCC70, 72 h.
Another experiment concerns A673. Kind of experiment: Inhibition of cell proliferation of human A673 cells incubated for 72 hrs by CyQUANT assay. Format: functional, cell-based. Conditions: A673, 72 h.

`N#Cc1ccc2c(-c3nc(N[C@H]4CCCNC4)ncc3Cl)c[nH]c2c1`: the values for the IC50 in the experiment with HCC70 and in the experiment with A673 were less than 100 nM and less than 20 nM, respectively.
On the same counts, the results for `FC(F)(F)c1cnc(N[C@H]2CCCNC2)nc1-c1c[nH]c2cnc(Cl)cc12` are 100 nM and 20 nM.
On the same counts, the results for `Cc1[nH]ncc1-c1cccc2c(-c3nc(N[C@@H]4CCCNC4)ncc3C(F)(F)F)c[nH]c12` are 1000 nM and less than 20 nM.
On the same counts, the results for `N#C[C@@H]1CCN(C(=O)c2ccc3c(-c4nc(N[C@H]5CCCNC5)ncc4C(F)(F)F)c[nH]c3c2)C1` are 100 nM and 20 nM.
Consider `Fc1cnc2[nH]cc(-c3nc(N[C@H]4CCCNC4)ncc3C(F)(F)F)c2c1`, for which the results for the IC50 in the experiment on HCC70 and with A673 were less than 100 nM and less than 20 nM, respectively.
Consider `N#Cc1ccc2c(-c3nc(N[C@@H]4CCCNC4)ncc3C(F)(F)F)c[nH]c2c1-c1ccnnc1`, for which the figures for the IC50 with HCC70 and with A673 were less than 100 nM and less than 20 nM, respectively.
On the same counts, the results for `CNC(=O)c1cccc2c(-c3nc(N[C@H]4CCCNC4)ncc3C(F)(F)F)c[nH]c12` are 100 nM and 20 nM.
As for `CC1(O)CCN(C(=O)c2ccc3c(-c4nc(N[C@H]5CCCNC5)ncc4C(F)(F)F)c[nH]c3c2)C1` (single isomer, unassigned), the results for the IC50 with HCC70 and in the experiment on A673 were 100 nM and 200 nM, respectively.

The IC50 is the midpoint of a concentration-inhibition curve. A lower IC50 goes with inhibition by little substance.
